{
  "source": "patent US9649314B2",
  "about": "“Pyrimido[4,5-b]quinoline-4,5(3H,10H)-diones” (NOVARTIS AG, priority 2012, dated 2017)",
  "test_system": "CFTR-Y122X",
  "assay": "CFTR-Y122X assay (dual reporter isogenic Hek293 cell lines, Renilla luminescence readthrough)",
  "type": "cell-based",
  "conditions": "Homo sapiens, HEK293; for Emax / AC50: nonsense mutation suppression, 24 h incubation; for Emax: 100% = 14 mM paromomycin, tested up to 100 μM, read-out: Amax [%]; for Emax at 100 µM: measured at 100 μM compound concentration (footnote d)",
  "summary_of_the_method": "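Stable isogenic HEK dual-reporter line (eGFP–CFTR Y122X TGA PTC–myc–Renilla); 2000 cells/well, 24 h, then compound (10 μM; tested up to 100 μM) 24 h at 37 °C. Renilla luminescence normalised to neutral (0%) and 14 mM paromomycin (100%); wildtype construct counterscreen.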",
  "key": {"[1]": {"conditions": "read-out: Amax [%]: % nonsense mutation suppression relative to paromomycin reference activity"}},
  "data": [
    {"smiles": "Cn1c2ccccc2c(=O)c2c(=O)n(C3CCCCC3)c(-c3cccc(Br)c3)nc21", "note": "[Example 2.30, 2-(3-bromophenyl)-3-cyclohexyl-10-methylpyrimido[4,5-b]quinoline-4,5(3H,10H)-dione]", "values": [
      {"measurement": "Emax", "result": 71, "unit": "%"},
      {"measurement": "AC50", "result": 22.2, "unit": "µM"}
    ]},
    {"smiles": "Cn1c2ccccc2c(=O)c2c(=O)n(C3CCCC3)c(-c3ccccc3F)nc21", "note": "[Example 2.32, 3-cyclopentyl-2-(2-fluorophenyl)-10-methylpyrimido[4,5-b]quinoline-4,5(3H,10H)-dione]", "values": [
      {"measurement": "Emax at 100 µM", "setting": "[1]", "result": 43, "unit": "%"}
    ]},
    {"smiles": "Cn1c2ccccc2c(=O)c2c(=O)n(C3CCCC3)c(-c3ccc(F)cc3)nc21", "note": "[Example 2.33, 3-cyclopentyl-2-(4-fluorophenyl)-10-methylpyrimido[4,5-b]quinoline-4,5(3H,10H)-dione]", "values": [
      {"measurement": "Emax at 100 µM", "setting": "[1]", "result": 18, "unit": "%"}
    ]},
    {"smiles": "Cc1ccccc1-c1nc2c(c(=O)c3ccccc3n2C)c(=O)n1C1CCCC1", "note": "[Example 2.34, 3-cyclopentyl-10-methyl-2-(o-tolyl)pyrimido[4,5-b]quinoline-4,5(3H,10H)-dione]", "values": [
      {"measurement": "Emax", "result": 33, "unit": "%"},
      {"measurement": "AC50", "result": 8.4, "unit": "µM"}
    ]},
    {"smiles": "Cn1c2ccccc2c(=O)c2c(=O)n(C3CCCC3)c(-c3ccccc3Cl)nc21", "note": "[Example 2.35, 2-(2-chlorophenyl)-3-cyclopentyl-10-methylpyrimido[4,5-b]quinoline-4,5(3H,10H)-dione]", "values": [
      {"measurement": "Emax", "result": 31, "unit": "%"},
      {"measurement": "AC50", "result": 9.4, "unit": "µM"}
    ]},
    {"smiles": "Cc1ccc(-c2nc3c(c(=O)c4ccccc4n3C)c(=O)n2C2CCCCC2)cc1", "note": "[Example 2.36, 3-cyclohexyl-10-methyl-2-(p-tolyl)pyrimido[4,5-b]quinoline-4,5(3H,10H)-dione]", "values": [
      {"measurement": "Emax", "result": 29, "unit": "%"},
      {"measurement": "AC50", "result": 3.5, "unit": "µM"}
    ]},
    {"smiles": "Cc1ccccc1-c1nc2c(c(=O)c3ccccc3n2C)c(=O)n1C1CCCCC1", "note": "[Example 2.37, 3-cyclohexyl-10-methyl-2-(o-tolyl)pyrimido[4,5-b]quinoline-4,5(3H,10H)-dione]", "values": [
      {"measurement": "Emax at 100 µM", "setting": "[1]", "result": 28, "unit": "%"}
    ]},
    {"smiles": "Cn1c2ccccc2c(=O)c2c(=O)n(C3CCCCC3)c(-c3ccccc3Cl)nc21", "note": "[Example 2.38, 2-(2-chlorophenyl)-3-cyclohexyl-10-methylpyrimido[4,5-b]quinoline-4,5(3H,10H)-dione]", "values": [
      {"measurement": "Emax", "result": 21, "unit": "%"},
      {"measurement": "AC50", "result": 10, "unit": "µM"}
    ]},
    {"smiles": "Cn1c2ccccc2c(=O)c2c(=O)n(C3CCCC3)c(-c3ccccc3)nc21", "note": "[Example 2.39, 3-cyclopentyl-10-methyl-2-phenylpyrimido[4,5-b]quinoline-4,5(3H,10H)-dione]", "values": [
      {"measurement": "Emax at 50 µM", "setting": "measured at 50 μM compound concentration (footnote e), read-out: Amax [%]: % nonsense mutation suppression relative to paromomycin reference activity", "result": 31, "unit": "%"}
    ]},
    {"smiles": "Cc1ccc(-c2nc3c(c(=O)c4ccccc4n3C)c(=O)n2C2CCCC2)cc1", "note": "[Example 2.40, 3-cyclopentyl-10-methyl-2-(p-tolyl)pyrimido[4,5-b]quinoline-4,5(3H,10H)-dione]", "values": [
      {"measurement": "Emax", "result": 20, "unit": "%"},
      {"measurement": "AC50", "result": 6.7, "unit": "µM"}
    ]},
    {"smiles": "Cn1c2ccccc2c(=O)c2c(=O)n(C3CCCCC3)c(-c3ccccc3F)nc21", "note": "[Example 2.41, 3-cyclohexyl-2-(2-fluorophenyl)-10-methylpyrimido[4,5-b]quinoline-4,5(3H,10H)-dione]", "values": [
      {"measurement": "Emax", "result": 18, "unit": "%"},
      {"measurement": "AC50", "result": 4.9, "unit": "µM"}
    ]},
    {"smiles": "COc1cc(-c2nc3c(c(=O)c4ccccc4n3C)c(=O)n2C2CCCCCC2)cc(OC)c1OC", "note": "[Example 2.42, 3-cycloheptyl-10-methyl-2-(3,4,5-trimethoxyphenyl)pyrimido[4,5-b]quinoline-4,5(3H,10H)-dione]", "values": [
      {"measurement": "Emax", "result": 18, "unit": "%"},
      {"measurement": "AC50", "result": 10.7, "unit": "µM"}
    ]},
    {"smiles": "Cn1c2ccccc2c(=O)c2c(=O)n(C3CCCC3)c(-c3cccs3)nc21", "note": "[Example 2.43, 3-cyclopentyl-10-methyl-2-(thiophen-2-yl)pyrimido[4,5-b]quinoline-4,5(3H,10H)-dione]", "values": [
      {"measurement": "Emax", "result": 17, "unit": "%"},
      {"measurement": "AC50", "result": 14.7, "unit": "µM"}
    ]},
    {"smiles": "Cn1c2ccccc2c(=O)c2c(=O)n(C3CCCCC3)c(-c3ccc(Cl)cc3)nc21", "note": "[Example 2.44, 2-(4-chlorophenyl)-3-cyclohexyl-10-methylpyrimido[4,5-b]quinoline-4,5(3H,10H)-dione]", "values": [
      {"measurement": "Emax", "result": 16, "unit": "%"}
    ]},
    {"smiles": "Cn1c2ccccc2c(=O)c2c(=O)n(C3CCCCC3)c(-c3ccc([N+](=O)[O-])cc3)nc21", "note": "[Example 2.45, 3-cyclohexyl-10-methyl-2-(4-nitrophenyl)pyrimido[4,5-b]quinoline-4,5(3H,10H)-dione]", "values": [
      {"measurement": "Emax", "result": 14, "unit": "%"},
      {"measurement": "AC50", "result": 11, "unit": "µM"}
    ]}
  ]
}
